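All cell lines were grown in 96-well plates and treated with compound for 48 hours. Definition used: TGI = concentration required for complete inhibition of growth.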
Tests used:
Assay in all cases: NCI-60 cell line screen, 48 h
A498 renal = tested on: A498 renal
HCT-116 colon = tested on: HCT-116 colon
NCI-H522 lung = tested on: NCI-H522 lung
SNB-19 CNS = tested on: SNB-19 CNS
UACC-257 melanoma = tested on: UACC-257 melanoma
SK-MEL-28 melanoma = tested on: SK-MEL-28 melanoma
EKVX NSCLC = tested on: EKVX NSCLC
SK-OV-3 ovarian = tested on: SK-OV-3 ovarian
SK-MEL-5 melanoma = tested on: SK-MEL-5 melanoma
UACC-62 melanoma = tested on: UACC-62 melanoma
DLD-1 colon = tested on: DLD-1 colon
M19-MEL melanoma = tested on: M19-MEL melanoma
LXFL 529 NSCLC = tested on: LXFL 529 NSCLC
M14 melanoma = tested on: M14 melanoma
HL-60(TB) leukemia = tested on: HL-60(TB) leukemia
U251 CNS = tested on: U251 CNS
CCRF-CEM leukemia = tested on: CCRF-CEM leukemia
OVCAR-5 ovarian = tested on: OVCAR-5 ovarian
DMS 273 small cell lung = tested on: DMS 273 small cell lung
TK-10 renal = tested on: TK-10 renal
SNB-78 CNS = tested on: SNB-78 CNS
SNB-75 CNS = tested on: SNB-75 CNS
KM12 colon = tested on: KM12 colon
UO-31 renal = tested on: UO-31 renal
HOP-62 NSCLC = tested on: HOP-62 NSCLC
NCI-H226 lung = tested on: NCI-H226 lung
SF-268 CNS = tested on: SF-268 CNS
IGROV1 ovarian = tested on: IGROV1 ovarian
A549 NSCLC = tested on: A549 NSCLC
CAKI-1 renal = tested on: CAKI-1 renal
ACHN renal = tested on: ACHN renal
OVCAR-3 ovarian = tested on: OVCAR-3 ovarian
NCI-H23 lung = tested on: NCI-H23 lung
HCT-15 colon = tested on: HCT-15 colon
KM20L2 colon = tested on: KM20L2 colon
LOX IMVI melanoma = tested on: LOX IMVI melanoma
OVCAR-8 ovarian = tested on: OVCAR-8 ovarian
RPMI-8226 leukemia = tested on: RPMI-8226 leukemia
NCI-H460 lung = tested on: NCI-H460 lung
SN12C renal = tested on: SN12C renal
OVCAR-4 ovarian = tested on: OVCAR-4 ovarian
HOP-18 NSCLC = tested on: HOP-18 NSCLC
COLO 205 colon = tested on: COLO 205 colon
786-0 renal = tested on: 786-0 renal
SK-MEL-2 melanoma = tested on: SK-MEL-2 melanoma
HCC-2998 colon = tested on: HCC-2998 colon
K-562 leukemia = tested on: K-562 leukemia
DMS 114 small cell lung = tested on: DMS 114 small cell lung
SF-295 CNS = tested on: SF-295 CNS
SF-539 CNS = tested on: SF-539 CNS
MALME-3M melanoma = tested on: MALME-3M melanoma
SW-620 colon = tested on: SW-620 colon
HT29 colon = tested on: HT29 colon
MOLT-4 leukemia = tested on: MOLT-4 leukemia
SR leukemia = tested on: SR leukemia

O=c1ccc2ccccc2c2ccccc12
TGI (A498 renal): 52.2 µM
TGI (HCT-116 colon): 11.4 µM
TGI (NCI-H522 lung): 11.2 µM
TGI (SNB-19 CNS): 8.73 µM
TGI (UACC-257 melanoma): 16.6 µM
TGI (SK-MEL-28 melanoma): 16.8 µM
TGI (EKVX NSCLC): 35.8 µM
TGI (SK-OV-3 ovarian): 13 µM
TGI (SK-MEL-5 melanoma): 12.7 µM
TGI (UACC-62 melanoma): 7.12 µM
TGI (DLD-1 colon): 14.7 µM
TGI (M19-MEL melanoma): 10.7 µM
TGI (LXFL 529 NSCLC): 10.4 µM
TGI (M14 melanoma): 6.52 µM
TGI (HL-60(TB) leukemia): 9.97 µM
TGI (U251 CNS): 4.93 µM
TGI (CCRF-CEM leukemia): 11.4 µM
TGI (OVCAR-5 ovarian): 6.7 µM
TGI (DMS 273 small cell lung): 14.3 µM
TGI (TK-10 renal): 28 µM
TGI (SNB-78 CNS): 17.7 µM
TGI (SNB-75 CNS): 10.8 µM
TGI (KM12 colon): 5.76 µM
TGI (UO-31 renal): 13.8 µM
TGI (HOP-62 NSCLC): 11.2 µM
TGI (NCI-H226 lung): 15.1 µM
TGI (SF-268 CNS): 6.19 µM
TGI (IGROV1 ovarian): 19 µM
TGI (A549 NSCLC): 31.8 µM
TGI (CAKI-1 renal): 8.55 µM
TGI (ACHN renal): 12.4 µM
TGI (OVCAR-3 ovarian): 11.5 µM
TGI (NCI-H23 lung): 6.33 µM
TGI (HCT-15 colon): 5.64 µM
TGI (KM20L2 colon): 3.85 µM
TGI (LOX IMVI melanoma): 3.99 µM
TGI (OVCAR-8 ovarian): 4.61 µM
TGI (RPMI-8226 leukemia): 7.83 µM
TGI (NCI-H460 lung): 13.8 µM
TGI (SN12C renal): 6.44 µM
TGI (OVCAR-4 ovarian): 20.4 µM
TGI (HOP-18 NSCLC): 14.9 µM
TGI (COLO 205 colon): 18.3 µM
TGI (786-0 renal): 10.1 µM
TGI (SK-MEL-2 melanoma): 16.2 µM
TGI (HCC-2998 colon): 21.4 µM
TGI (K-562 leukemia): 33.1 µM
TGI (DMS 114 small cell lung): 4.7 µM
TGI (SF-295 CNS): 13.3 µM
TGI (SF-539 CNS): 4.09 µM
TGI (MALME-3M melanoma): 22.3 µM
TGI (SW-620 colon): 10.9 µM
TGI (HT29 colon): 6.78 µM
TGI (MOLT-4 leukemia): 20.3 µM
TGI (SR leukemia): 4.66 µM

From PubChem BioAssay (NCI)
